Patent publication US7947695B2, “5-membered annelated heterocyclic pyrimidines as kinase inhibitors” (Janssen Pharmaceutica NV, priority 2005, dated 2011)

Legend:
[1] = target: CDK4/cyclinD1 enzyme complex (Homo sapiens, UniProt P11802); experiment: In vitro scintillation proximity assay (SPA) for CDK4 inhibitory activity; format: biochemical; conditions: GST-pRb substrate, 33P-ATP, 25° C. 30 minutes, read-out: cdk4 SPA see C.4 (pIC50) (converted)
Experimental: Compounds of the present invention were tested in an in vitro assay based on SPA technology.
In principle, the assay relies upon the well established SPA technology for the detection of CDK4 phosphorylated proteins, i.e pRb. This phosphorylation is performed using I0 CDK4/cyclinD1 enzyme complex and ^33P-ATP as phosphor donor.
The CDK4 SPA kinase reaction is performed at 25° C. for 30 minutes in a 96-well microtiter plate. The 100 μl reaction volume contains 40 mM Hepes, 6 mM NaF, 6 mM MgCl2, 0.6 mM Na3VO4, 2 μg/ml Pepstatin, 2 μg/ml Leupeptin, 2 μg/ml Aprotinin, 50 μg/ml TLCK, 150 μg/ml DTT, 0.3 μg/ml benzamide, 0.1 μCi ^33P-ATP, 1.7 μg GST-pRb, 50 ng CDK4/cyclinD1/well and 0.2% compound in 100% DMSO. The reaction is stopped by adding to each well 100 μl of the glutathione coated SPA beads (10 mg/ml in PBS+10 mM EDTA+100 μM ATP+0.05% Triton X 100). The plates are then shaked at 300 rpm for 30 min to allow binding of the GST-tagged substrate to the glutathione coated beads. The beads are allowed to settle at the bottom of the plate for 30 minutes. The microtiterplates are centrifuges at 800 rpm for 10 minutes and the amount of phosphorylated (^33P) substrate is determined by counting (30 sec/well) in a microtiterplate scintillation counter.
(§1) For each experiment, controls (containing enzyme (complex) and DMSO without compound), a blank incubation (containing DMSO but no enzyme (complex) or compound) and samples (containing enzyme (complex) and compound dissolved in DMSO) were run in parallel. All compounds tested were dissolved and eventually further diluted in DMSO. […] In each test, the blank value was subtracted from both the control and the sample values. The control sample represented maximal enzyme activity. For each sample, the amount of cpm was expressed as a percentage of the mean cpm value of the controls. When appropriate, IC50-values (concentration of the drug, needed to reduce the enzyme activity to 50% of the control) were computed using linear interpolation between the experimental points just above and below the 50% level. Herein the effects of test compounds are expressed as pIC50 (the negative log value of the IC50-value).

AURORA B = AURORA B (Homo sapiens, UniProt Q96GD4); experiment: In vitro filtration assay for AURORA B inhibitory activity; format: biochemical; conditions: peptide (C(LRRWSLG)×4), 1 μM unlabeled ATP, 25° C. 40 minutes, read-out: Aurora B see C.3 (pIC50) (converted)
Experimental: (§2) Compounds of the present invention were tested in an in vitro filtration assay assessing AURORA B activity by means of its substrate-phosphorylation activity using [^33P]-ATP as phosphor donor. The radioactive phosphorylated substrate is then captured on filtermats and the incorporated [^33P] quantitated using a phosphorage storage screen.
The Aurora-B kinase reaction is performed at 25° C. for 40 minutes in a 96-well microtiterplate. The 25 μl reaction volume contains 60 mM Hepes pH 7.5, 3 mM MgCl2, 3 mM MnCl2, 3 μM Na3VO4, 50 μg/ml PEG20000, 1 μM unlabeled ATP, 1 mM DTT, 0.2 μCi AT^33P, 0.25 μg/well peptide (C(LRRWSLG)×4),100 ng Aurora-B/well and 0.2% compound in 100% DMSO. The reaction is stopped by adding 5 μl of a 3% phosphoric acid solution. 10 μl of the reaction mixture is then spotted onto a Filtermat P30 filter (Wallac) and washed 3 times for 5 min. in 75 mM phosphoric acid and 1 time for 5 min. in methanol prior to drying and quantification on the Typhoon (Amersham) using a phosphorage storage screen.
as §1

AURORA A = target: T1, AURORA A (Homo sapiens, UniProt O14965); experiment: In vitro filtration assay for AURORA A inhibitory activity; format: biochemical; conditions: Kemptide substrate, 1 μM unlabeled ATP, 25° C. 40 minutes, read-out: Aurora A see C.2 (pIC50) (converted)
T1 sequence (O14965 1-403): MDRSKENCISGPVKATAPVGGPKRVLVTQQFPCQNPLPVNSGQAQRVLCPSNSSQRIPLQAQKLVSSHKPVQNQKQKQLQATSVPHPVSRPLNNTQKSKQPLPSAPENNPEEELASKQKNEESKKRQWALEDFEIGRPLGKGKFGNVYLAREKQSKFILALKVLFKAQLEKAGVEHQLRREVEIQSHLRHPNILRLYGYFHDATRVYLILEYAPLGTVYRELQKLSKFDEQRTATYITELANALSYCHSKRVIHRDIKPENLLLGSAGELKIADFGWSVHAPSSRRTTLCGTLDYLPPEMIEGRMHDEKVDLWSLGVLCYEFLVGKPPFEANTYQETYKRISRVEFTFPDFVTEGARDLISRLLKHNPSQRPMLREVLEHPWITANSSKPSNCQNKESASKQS
Experimental: as §2, with “A” for “B”
The Aurora-A kinase reaction is performed at 25° C. for 40 minutes in a 96-well microtiterplate. The 25 μl reaction volume contains 12 mM MOPS pH 7, 0.4 mM EDTA, 0.002% Brij35, 1% glycerol, 0.02% beta-mercapto-ethanol, 0.2 mg/ml BSA, 1 μM unlabeled ATP, […] [^33P]-ATP, 200 μM Kemptide, 3 ng Aurora A/well and 0.2% compound in 100% DMSO.
(§3) The reaction is stopped by adding 5 μl of a 3% phosphoric acid solution. 10 μl of the reaction mixture is then spotted onto a Filtermat P30 filter (Wallac) and washed 3 times for 5 min. in 75 mM phosphoric acid and 1 time for 5 min. in methanol prior to drying and quantification on the Typhoon (Amersham) using a phosphorage storage screen.
as §1

CDK4/cyclinD1 = CDK4/cyclinD1 (Homo sapiens, UniProt P11802); experiment: In vitro filtration assay for CDK4 inhibitory activity (pRb phosphorylation, [33P]-ATP); format: biochemical; conditions: GST-pRb substrate, 1 μM unlabeled ATP, 25° C. 45 minutes, read-out: cdk4 filter (pIC50) (converted)
Experimental: as §2, with “CDK4” for “AURORA B”, “pRb-phosphorylation” for “substrate-phosphorylation”, “pRb” for “substrate”
The CDK4 kinase reaction is performed at 25° C. for 45 minutes in a 96-well microtiterplate. The 25 μl reaction volume contains 50 mM Hepes pH 7.5, 10 mM NaF, 10 mM MgCl2, 1 mM Na3VO4, 1 μM unlabeled ATP, 1 mM DTT, 0.5 μCi AT^33P, 0.76 μg/well GST-pRb, 50 ng CDK4/cyclinD1/well and 0.2% compound in 100% DMSO.
as §3, §1

Chain of AURORA B (Q96GD4 whole entry): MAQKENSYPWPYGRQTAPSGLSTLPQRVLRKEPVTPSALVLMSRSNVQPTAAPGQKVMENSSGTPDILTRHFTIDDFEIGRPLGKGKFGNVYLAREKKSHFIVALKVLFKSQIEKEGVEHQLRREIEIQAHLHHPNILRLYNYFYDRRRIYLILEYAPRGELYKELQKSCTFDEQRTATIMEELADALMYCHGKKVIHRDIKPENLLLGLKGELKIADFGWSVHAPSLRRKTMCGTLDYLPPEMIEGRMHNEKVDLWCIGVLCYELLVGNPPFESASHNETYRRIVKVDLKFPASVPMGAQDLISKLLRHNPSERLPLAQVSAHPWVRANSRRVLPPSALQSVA
Chain of CDK4/cyclinD1 enzyme complex (P11802 whole entry): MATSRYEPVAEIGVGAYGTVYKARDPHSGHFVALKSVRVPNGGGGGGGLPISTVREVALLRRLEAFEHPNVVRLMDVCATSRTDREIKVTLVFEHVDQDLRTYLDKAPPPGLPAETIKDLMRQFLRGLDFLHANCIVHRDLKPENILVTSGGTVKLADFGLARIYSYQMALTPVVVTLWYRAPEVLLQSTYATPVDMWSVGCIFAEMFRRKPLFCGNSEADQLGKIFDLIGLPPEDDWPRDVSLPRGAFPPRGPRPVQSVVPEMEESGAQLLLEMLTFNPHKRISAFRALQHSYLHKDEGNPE
Chain of CDK4/cyclinD1 enzyme complex (P24385 whole entry partner): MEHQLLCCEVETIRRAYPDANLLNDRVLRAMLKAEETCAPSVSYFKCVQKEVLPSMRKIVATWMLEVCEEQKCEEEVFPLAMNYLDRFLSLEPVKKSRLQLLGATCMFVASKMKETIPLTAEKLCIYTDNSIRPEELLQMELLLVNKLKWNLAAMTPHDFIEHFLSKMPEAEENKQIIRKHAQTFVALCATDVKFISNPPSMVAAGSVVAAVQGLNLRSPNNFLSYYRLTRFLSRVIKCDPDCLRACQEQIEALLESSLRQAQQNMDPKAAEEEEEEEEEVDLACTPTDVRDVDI
Chain of CDK4/cyclinD1 (P11802 whole entry): as the sequence (P11802 whole entry) above
Chain of CDK4/cyclinD1 (P24385 whole entry partner): as the sequence (P24385 whole entry partner) above

SMILES	IC50 [1]	melting point	IC50 (AURORA B)	IC50 (AURORA A)	IC50 (CDK4/cyclinD1)
CN1CCN(c2ccc(Nc3ncc4cnn(C5CCCCC5)c4n3)cc2)CC1 [Co. No. 1]	5.01 nM	180 °C	251 nM	126 nM	3.16 nM
CN1CCN(c2ccc(Nc3ncc4ncn(C5CCCCC5)c4n3)cc2)CC1 [Co. No. 5]	3160 nM	203.5 to 203.6 °C	> 10000 nM	> 10000 nM	631 nM
CN1CCN(c2ccc(Nc3ncc4[nH]c(=O)n(C5CCCCC5)c4n3)cc2)CC1 [Co. No. 6]	100 nM	294 °C	> 10000 nM	> 10000 nM	251 nM
CN1CCN(c2ccc(Nc3ncc4c(=O)[nH]n(C5CCCCC5)c4n3)cc2)CC1 [Co. No. 7]	158 nM	> 260 °C	398 nM		79.4 nM
O=S(=O)(c1ccc(Nc2ncc3cnn(C4CCCCC4)c3n2)cc1)N1CCOCC1 [Co. No. 8]		240 °C	> 10000 nM	501 nM	100 nM
O=C(NC1CCN(CCO)CC1)c1ccc(Nc2ncc3cnn(C4CCCCC4)c3n2)cc1 [Co. No. 9]		177 to 181 °C	794 nM	251 nM	126 nM
OCCCC1CCN(c2ccc(Nc3ncc4cnn(C5CCCCC5)c4n3)cc2)CC1 [compound 10]	12.6 nM		> 10000 nM	50.1 nM	79.4 nM
CN1CCN(c2ccc(Nc3ncc4cnn(C5CCCC5)c4n3)cc2)CC1 [compound 11]	6.31 nM		398 nM	158 nM	31.6 nM
c1cc(N2CCOCC2)ccc1Nc1ncc2cnn(C3CCCCC3)c2n1 [compound 12]	20 nM		251 nM	63.1 nM	39.8 nM
OCCCC1CCN(c2ccc(Nc3ncc4cnn(C5CCCC5)c4n3)cc2)CC1 [compound 13]	50.1 nM		> 10000 nM	50.1 nM	63.1 nM
CN1CCN(c2ccc(Nc3ncc4cnn(-c5ccccc5)c4n3)cc2)CC1 [compound 14]	3.98 nM		794 nM	79.4 nM	20 nM
O=c1[nH]c2cnc(Nc3ccc(N4CCOCC4)cc3)nc2n1C1CCCCC1 [compound 78]	631 nM				1000 nM
CN1CCC(NCc2ccc(Nc3ncc4[nH]c(=O)n(C5CCCCC5)c4n3)cc2)CC1 [compound 87]			> 10000 nM	> 10000 nM	3980 nM
CN1CCN(c2ccc(Nc3ncc4[nH]c(=O)n([C@H]5C[C@@H]6CC[C@H]5C6)c4n3)cc2)CC1 [compound 88]			> 10000 nM	1580 nM	2000 nM
CN1CCN(c2ccc(Nc3ncc4c(n3)N(C3CCCCC3)C(=O)C4)cc2)CC1 [compound 89]			3160 nM	1580 nM	316 nM
CN1CCN(c2ccc(Nc3ncc4c(=O)[nH]n(C5CCCC5)c4n3)cc2)CC1 [compound 91]	1260 nM		> 10000 nM	7940 nM	631 nM
O=c1[nH]n(C2CCCC2)c2nc(Nc3ccc(N4CCC(CCCO)CC4)cc3)ncc12 [compound 92]	2510 nM		> 10000 nM		6310 nM
O=c1[nH]n(C2CCCC2)c2nc(Nc3ccc(N4CCOCC4)cc3)ncc12 [compound 93]	2510 nM		> 10000 nM	1580 nM	5010 nM
O=c1[nH]n(C2CCCCC2)c2nc(Nc3ccc(N4CCC(CCCO)CC4)cc3)ncc12 [compound 94]	1000 nM		> 10000 nM	3160 nM	1580 nM
O=C(NC1CCOCC1)c1ccc(Nc2ncc3cnn(C4CCCCC4)c3n2)cc1 [compound 95]			631 nM	126 nM	794 nM
O=C(NCCN1CCOCC1)c1ccc(Nc2ncc3cnn(C4CCCCC4)c3n2)cc1 [compound 96]			1260 nM	100 nM	631 nM
COCCCN1CCC(NC(=O)c2ccc(Nc3ncc4cnn(C5CCCCC5)c4n3)cc2)CC1 [compound 97]			501 nM	398 nM	631 nM
